Data as given in ChEMBL document CHEMBL1909496, “Malabaricone C from Myristica cinnamomea exhibits anti-quorum sensing activity” (J Nat Prod, 2011).
Calls of active or inactive are those of the source. The rule behind the calls is not given here.

Experiments:
[1] = system: Pseudomonas aeruginosa PAO1; test: Inhibition of Pseudomonas aeruginosa PAO1 quorum sensing assessed as reduction of biofilm formation at 1 mg/ml after 18 hrs using crystal violet staining
[2] = system: Pseudomonas aeruginosa PAO1; test: Inhibition of Pseudomonas aeruginosa PAO1 quorum sensing assessed as reduction of biofilm formation at 2 mg/ml after 18 hrs using crystal violet staining
[3] = system: Pseudomonas aeruginosa PAO1; test: Inhibition of Pseudomonas aeruginosa PAO1 quorum sensing assessed as reduction of biofilm formation at 3 mg/ml after 18 hrs using crystal violet staining
[4] = system: Chromobacterium violaceum; test: Inhibition of Chromobacterium violaceum CV026 quorum sensing assessed as N-3-oxohexanoyl-homoserine lactone-induced violacein production at 3 mg/ml relative to control
[5] = system: Pseudomonas aeruginosa PAO1; test: Inhibition of Pseudomonas aeruginosa PAO1 quorum sensing assessed as inhibition of pycocyanin production at >/= 0.1 mg/ml after overnight incubation
Pseudomonas aeruginosa = test: Toxicity in Pseudomonas aeruginosa PAO1 quorum sensing assessed as cell viability; assay type: organism-based
[6] = system: Pseudomonas aeruginosa PAO1; test: Inhibition of LuxR-dependent quorum sensing in Pseudomonas aeruginosa PAO1 assessed as inhibition of autoinducer production

Row | inhibition [1] | inhibition [2] | inhibition [3] | inhibition [4] | inhibition [5] | inhibition [6] | Compound | Activity (Pseudomonas aeruginosa)
1 | Active | Active | Active | – | – | – | Oc1cc(O)c2c(c1)O[C@H](c1ccc(O)c(O)c1)[C@@H](O)C2 | –
2 | 44.9% | 63% | 69.4% | Active | Active | inactive | O=C(CCCCCCCCc1ccc(O)c(O)c1)c1c(O)cccc1O [MALABARICONE C] | Non-toxic
